Experimental data from US20090274739A1, “METHODS AND COMPOSITIONS FOR TREATING NEOINTIMAL HYPERPLASIA” (THE TRUSTEES OF COLUMBIA UNIVERSITY IN THE CITY OF NEW YORK, priority 2006, published 2009).
“Also recorded” adds a separate entry of the source.

Tests used:
[1] = tested on: primary murine aortic vascular smooth muscle cells (VSMC); assay: VSMC proliferation assay (Coulter counter / MTS-based); assay type: cell-based, mouse
Description: The methods used in the above experiments were as follows: Cell Culture and VSMC Proliferation Assays. Primary VSMC were isolated from aortic explants of wildtype, ob/ob, or db/db mice in the method of Roque et al. 30. VSMC were routinely cultured in Dulbecco's Modified Eagle's Medium (DMEM) containing either 4500 or 1250 mg/L glucose supplemented with 20% FBS at 37° C. in a 5% CO2 incubator. […] Cells were plated at 200,000 cells/ well of a 6 well dish and subsequently serum starved for 72 hr in DMEM media supplemented with 0.1 % FBS. Leptin dissolved in PBS was added directly to serum-free media at concentrations of 1, 10, or 100 ng/ml with […] LY294002 or U0126, and cells were grown for another 72 hr before harvesting. VSMC proliferation was measured by counting samples using a Coulter counter or using the Cell Titre 96 Aqueous One Solution Cell Proliferation Assay kit (Promega). Cell viability was assessed by Trypan Blue staining.
Proliferation of VSMCs: VSMC proliferation was measured by counting triplicate samples using a Coulter counter or using the CellTitier 96 Aqueous One Solution Cell Proliferation Assay (Promega, Madison, Wis.) kit per manufacturer's instructions. Cell viability was assessed via staining with Trypan Blue.
Murine VSMCs (2×10^4 cells/well) were incubated in a 6-well tissue culture plate for 72 hours in DMEM containing 0.1% FBS with or without insulin (10 or 100 nmol/L) and with 0, 1, 10, or 100 nmol/L rapamycin. Triplicate samples were counted using a Coulter counter and were normalized as percentage of the control group. Cell viability was checked via Trypan blue staining.
Murine VSMCs, seeded 2×10^4 cells/well in a 6-well plate, were starved for 72 hrs in DMEM with 0.1% FBS. Rapamycin, leptin, or insulin in different concentrations indicated in the figure were incubated with VSMCs in DMEM with 0.1% of FBS for 72 hrs. Triplicate samples were counted via a Coulter counter. Cell viability was checked via Trypan blue staining. […] In panel C, VSMCs were exposed to U0126, a specific MEK1/2 inhibitor, or LY294002, a specific PI3K inhibitor.
Primary VSMC were isolated from aortic explants of WT, ob/ob, or db/db mice (46). VSMC proliferation was determined using the Cell Titre Aqueous One Solution Proliferation Assay (Promega, Madison, Wis.). Migration to PDGF-BB was assessed in a modified Boyden chamber assay (47).

[2] = tested on: MAPK (p44/p42, ERK1/2) phosphorylation; assay: Immunoblot of MAPK (ERK1/2, p44/p42) phosphorylation in VSMC; assay type: cell-based, mouse
Description: (§1) Western blot analysis: The cells were plated in a 100-mm culture dish in DMEM supplemented with 20% FBS for 24 h at 37° C., followed by serum starvation for 48 h. Cells were then treated with different reagents for 30 min. Cells were subsequently lysed on ice for 30 min in RIPA buffer [150 mM NaCl, 100 mM Tris (pH 8.0), 1% Triton X-100, 1% deoxycholic acid, 0.1% SDS, 5 mM EDTA, and 10 mM NaF] supplemented with 1 mM sodium vanadate, 2 mM leupeptin, 2 mM aprotinin, 1 mM phenylmethylsulfonyl fluoride (PMSF), 1 mM DTT, and 2 mM pepstatin A. After centrifugation at 14,000 rpm for 30 min, the supernatant was harvested as the total cellular protein extract, and stored at −70° C. The protein concentration was determined using Bio-Rad protein assay reagent (Richmond, Calif.). The total cellular protein extracts were separated by SDS-polyacrylamide gel electrophoresis (SDS-PAGE) and transferred to nitrocellulose membrane in 20 mM Tris-HCl (pH 8.0) containing 150 mM glycine and 20% (v/v) methanol.
(§2) Membranes were blocked with 5% nonfat dried milk in PBS containing 0.05% Tween 20 and incubated with antibodies against phospho-(Thr^202/Tyr^204) p42/p44^MAPK and p42/p44^MAPK, phospho-Akt([…]) and anti-Akt, p70^S6K, 4EBP-1. Blots were washed three times in PBS buffer, followed by incubation with the appropriate HRP-linked IgG. The specific proteins in the blots were visualized using an enhanced chemiluminescence reagent (NEN, Boston, Mass.).
(§3) VSMC were plated on 100-mm dishes, serum starved for 72 h in DMEM containing 0.1% FBS, and stimulated with 0.6 or 6 nM (10 or 100 ng/ml) leptin. Extracts were prepared by brief sonication in HKM buffer [40 mM HEPES-KOH (pH 7.6), 7.5 mM MgCl2, 0.5 mM DTT] or, in the case of Akt phosphorylation studies, by lysing cells on ice for 30 min in RIPA buffer. 70 μg of protein per sample were subjected to immunoblotting by standards protocols. Imaging and densitometry were performed on an Odyssey infrared system (Li-Cor, Lincoln, Neb.).

Akt phosphorylation = assay: Immunoblot of Akt phosphorylation in VSMC; assay type: cell-based, mouse
Description: as §1, §2, §3

[3] = mouse, in vivo
Excerpt: Animal Models and Drug Treatments. Wild type C57BL/6J background mice and mice deficient for leptin (C57BL/6J-Lepob; ob/ob) or the leptin receptor (C57BL/6J-m+/+Lepdb; db/db) were purchased from Charles Jackson Laboratories, Maine. Mice were obtained at ages 6-8 weeks old and average weight 15 g. Animals were fed standard rodent chow and tap water ad libitum. Procedures and animal care were approved by the Institutional Animal Care and Use Committee. Mice were subjected to femoral artery wire injury or sham injury described below 24 hr prior to starting pharmacological treatments. Sirolimus was administered by intraperitoneal injection once per day for 14 days as a suspension in 0.2% sodium carboxymethyl cellulose and 0.25% polysorbate-80; duplicate experiments were accomplished with 0.5% DMSO. […] Plasma leptin levels were measured at baseline, 3, 6, and 10 hr after leptin injection using an ELISA assay (R&D). […]
For leptin measurements, plasma was obtained by drawing 100 μL of retro-orbital whole blood into a heparinized tube and removing cells by centrifugation at 20,000 m/s^2 for 5 min. Plasma leptin levels were measured at baseline, 3, 6, and 10 h after leptin injection in WT mice or at baseline in ob/ob and db/db mice using the mouse leptin TiterZyme EIA kit (Assay Designs, Ann Arbor, Mich.).

[4] = Example 2, leptin 100 ng/ml, decreasing thereafter at 45 min

## Leptin: recombinant leptin; hormone derived from adipose tissue, encoded by the Ob gene
[1]; Example 2, high (4500 mg/L) and normal (1250 mg/L) glucose, various leptin concentrations
  VSMC proliferation: potentiated the proliferation of VSMCs in a dose-dependent manner
[1]; co-incubation of leptin 100 ng/ml with insulin 10 nmol/L
  VSMC proliferation: ~80%
[1]; leptin receptor-defective (db/db) VSMC, leptin 1, 10, 100 ng/ml
  VSMC proliferation: not
[1]; leptin-deficient (ob/ob) VSMC, leptin 1, 10, 100 ng/ml
  VSMC proliferation: induced dose-dependent VSMC proliferation; also recorded: can induce VSMC proliferation; also recorded: increased
[1]; wild type C57BL/6J VSMC, leptin 1, 10, 100 ng/ml (0.06, 0.6, 6 nM), 72 h, vs vehicle
  VSMC proliferation: increased murine VSMC proliferation in a dose-dependent fashion
[1]; wild type C57BL/6J VSMC, leptin 1, 10, 100 ng/ml (0.06, 0.6, 6 nM), 72 h, vs vehicle, listed as leptin
  VSMC proliferation: increased
[2]; Example 1, leptin 10 ng/mL
  phosphorylation of the p44 and p42 forms of MAPK: stimulated the phosphorylation
[2]; [4]
  time of maximum ERK1/2 phosphorylation: 10 min
[2]; Example 5, leptin 6 nM
  phosphorylation of MAPK: stimulated
Akt phosphorylation; Example 1, leptin 10 ng/mL
  phosphorylation of Akt (on serine 473): stimulated the phosphorylation
Akt phosphorylation; [4]
  time of maximum Akt phosphorylation: 10 min
Akt phosphorylation; Example 5, leptin 6 nM
  Thr-308 phosphorylation of Akt: stimulated
  phosphorylation of Ser-473 of Akt: stimulated the phosphorylation
[3]
  leptin level 3 h after injection relative to untreated WT mice: ~20 times
  leptin level 3 hr after injection relative to untreated WT mice: 15 times
